{"source": "paper PMC6768106", "about": "“The crystal structure of AcrR from Mycobacterium tuberculosis reveals a one‐component transcriptional regulation mechanism” (FEBS Open Bio, 2019)", "biological_target": "AcrR (Mycobacterium tuberculosis, UniProt O07229)", "sequence (O07229 entry or part of it)": "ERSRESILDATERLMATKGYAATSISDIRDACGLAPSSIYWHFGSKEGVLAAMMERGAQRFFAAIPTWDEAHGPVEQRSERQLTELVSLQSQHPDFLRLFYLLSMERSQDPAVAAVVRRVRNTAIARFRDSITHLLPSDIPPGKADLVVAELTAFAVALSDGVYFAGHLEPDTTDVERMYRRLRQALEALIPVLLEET", "data": [{"compound": "CCCCCCCCCCCCCCCC(=O)O", "note": "[palmitate]", "values": [{"measurement": "STD-NMR; also EMSA (promoter DNA release) and CD titration", "result": "which reveals the binding between AcrR and palmitate"}]}]}
